In ChEMBL document CHEMBL5042500 (J Med Chem, 2022):
pIC50: −log10 of the molar value. Converted amounts (≈) assume the structure as drawn. The source made the active and inactive calls. The rule behind the calls is not given here.

Key:
Cytochrome P450 3A4 [1] = molecular target: T1, Cytochrome P450 3A4 (Homo sapiens, UniProt P08684); assay: Inhibition of CYP3A4 in human liver microsomes using testosterone as substrate incubated for 30 mins by LC-MS/MS analysis; assay type: ADME
[2] = Metabolic stability in CD1 mouse liver microsomes assessed as compound degradation in presence of NADPH measured after 20 mins; assay type: ADME, Microsome; conditions: read-out: Drug degradation
[3] = molecular target: T2, Serine/threonine-protein kinase Sgk1 (Homo sapiens, UniProt O00141); assay: Inhibition of recombinant human SGK1 expressed in baculovirus expression system using 5-carboxyfluorescein -RPRAATF-NH2 as substrate preincubated for 30 mins followed by substrate addition in presence of 10 uM ATP and measured after 60 mins by microfluidics assay
T2 sequence (O00141 whole entry): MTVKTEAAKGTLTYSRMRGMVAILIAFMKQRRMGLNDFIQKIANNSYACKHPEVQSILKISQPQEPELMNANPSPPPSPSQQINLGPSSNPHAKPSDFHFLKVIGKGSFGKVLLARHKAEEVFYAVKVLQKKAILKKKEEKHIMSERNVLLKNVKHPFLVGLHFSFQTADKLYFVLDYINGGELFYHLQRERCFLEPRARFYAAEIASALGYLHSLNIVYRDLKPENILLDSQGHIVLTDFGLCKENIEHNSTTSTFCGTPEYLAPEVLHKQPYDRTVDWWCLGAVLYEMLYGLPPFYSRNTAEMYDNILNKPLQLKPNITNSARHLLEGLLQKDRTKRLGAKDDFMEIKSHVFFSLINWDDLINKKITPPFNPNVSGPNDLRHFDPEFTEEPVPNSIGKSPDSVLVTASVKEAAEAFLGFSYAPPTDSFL

[4] = molecular target: T2, Serine/threonine-protein kinase Sgk1; assay: Inhibition of recombinant human SGK1 expressed in baculovirus expression system using 5-carboxyfluorescein -RPRAATF-NH2 as substrate preincubated for 30 mins followed by substrate addition in presence of 500 uM ATP and measured after 60 mins by microfluidics assay
[5] = molecular target: T3, Serine/threonine-protein kinase Sgk2 (Homo sapiens, UniProt Q9HBY8); assay: Inhibition of human SGK2 in presence 500 uM presence of ATP
T3 sequence (Q9HBY8 whole entry): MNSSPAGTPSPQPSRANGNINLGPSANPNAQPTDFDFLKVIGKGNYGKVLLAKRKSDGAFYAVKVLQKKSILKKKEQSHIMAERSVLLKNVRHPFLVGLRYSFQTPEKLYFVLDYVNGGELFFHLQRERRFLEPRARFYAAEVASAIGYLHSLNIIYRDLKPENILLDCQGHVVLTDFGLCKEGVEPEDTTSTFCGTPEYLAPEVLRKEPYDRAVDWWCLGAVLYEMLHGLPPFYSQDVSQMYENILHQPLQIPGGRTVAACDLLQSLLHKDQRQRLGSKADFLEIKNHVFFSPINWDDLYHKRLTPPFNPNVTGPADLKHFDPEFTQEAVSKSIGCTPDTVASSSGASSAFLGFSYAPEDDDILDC

[6] = molecular target: T4, Serine/threonine-protein kinase Sgk3 (Homo sapiens, UniProt Q96BR1); assay: Inhibition of human SGK3 in presence 500 uM presence of ATP
T4 sequence (Q96BR1 whole entry): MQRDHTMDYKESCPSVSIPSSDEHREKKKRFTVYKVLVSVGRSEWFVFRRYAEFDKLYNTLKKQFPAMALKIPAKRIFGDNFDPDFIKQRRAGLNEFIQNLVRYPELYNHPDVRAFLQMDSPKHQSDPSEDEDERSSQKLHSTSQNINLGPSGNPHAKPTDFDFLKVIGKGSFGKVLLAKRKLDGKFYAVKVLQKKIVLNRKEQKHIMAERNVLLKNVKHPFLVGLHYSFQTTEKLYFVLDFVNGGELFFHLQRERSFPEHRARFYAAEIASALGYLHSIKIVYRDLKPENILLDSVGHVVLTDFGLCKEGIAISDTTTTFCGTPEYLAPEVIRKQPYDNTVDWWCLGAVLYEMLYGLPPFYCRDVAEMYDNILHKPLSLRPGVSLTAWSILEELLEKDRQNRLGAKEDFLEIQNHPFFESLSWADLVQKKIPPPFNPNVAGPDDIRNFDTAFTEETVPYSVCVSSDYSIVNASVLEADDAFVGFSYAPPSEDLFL

[7] = molecular target: T5, Serine/threonine-protein kinase Sgk1 (Mus musculus, UniProt Q9WVC6); assay: Inhibition of mouse SGK1 in presence 500 uM presence of ATP
T5 sequence (Q9WVC6 whole entry): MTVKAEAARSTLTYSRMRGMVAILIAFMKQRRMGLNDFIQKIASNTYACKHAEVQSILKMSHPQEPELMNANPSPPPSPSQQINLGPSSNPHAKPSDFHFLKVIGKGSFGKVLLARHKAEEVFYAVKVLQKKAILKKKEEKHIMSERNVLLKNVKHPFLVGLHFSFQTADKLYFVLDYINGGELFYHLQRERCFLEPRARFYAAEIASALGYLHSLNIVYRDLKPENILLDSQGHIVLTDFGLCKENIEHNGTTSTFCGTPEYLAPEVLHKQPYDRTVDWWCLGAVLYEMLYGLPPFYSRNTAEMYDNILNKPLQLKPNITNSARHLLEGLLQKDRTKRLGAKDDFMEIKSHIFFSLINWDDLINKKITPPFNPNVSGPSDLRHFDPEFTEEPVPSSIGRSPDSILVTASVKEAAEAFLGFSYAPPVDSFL

[8] = Inhibition of rat SGK1 in presence 500 uM presence of ATP
[9] = Distribution coefficient, logD of compound at pH 7.4 by chromatographic analysis; assay type: physicochemical; conditions: octanol/water
[10] = Aqueous solubility of the compound at pH 7.4; assay type: physicochemical
[11] = Effect on chondrocyte hypertrophic differentiation mouse ATDC-5 cells assessed as inhibition of […] gene expression incubated for 2 weeks followed by compound added and every 3 days medium is changed measured after 2 weeks by RT-qPCR analysis; assay type: functional, cell-based
[12] = Permeability in human Caco2 cells at 20 uM incubated for 120 mins by ESI-MS/MS analysis; assay type: ADME, cell-based; conditions: Caco-2, read-out: permeability
[13] = Chemical stability of the compound at pH 7.4 measured after 24 hrs; assay type: physicochemical; conditions: buffer, read-out: Stability
[14] = Metabolic stability in human liver microsomes assessed as compound degradation in presence of NADPH measured after 20 mins; assay type: ADME, Microsome; conditions: read-out: Drug degradation
[15] = Metabolic stability in Sprague-Dawley rat liver microsomes assessed as compound degradation in presence of NADPH measured after 20 mins; assay type: ADME, Microsome; conditions: read-out: Drug degradation
[16] = Intrinsic clearance in human hepatocytes assessed per 10^-6 cells; assay type: ADME, cell-based, Hepatocyte
Cytochrome P450 3A4 [17] = molecular target: T1, Cytochrome P450 3A4; assay: Inhibition of CYP3A4 in human liver microsomes using midazolam as substrate incubated for 10 mins by LC-MS/MS analysis; assay type: ADME
CYP3A4 = CYP3A4 (Homo sapiens, UniProt P08684); assay: Inhibition of CYP3A4 in human liver microsomes by measuring maximum efficacy; assay type: ADME
hERG (KCNH2) [18] = molecular target: T6, hERG (KCNH2) (Homo sapiens, UniProt Q12809); assay: Inhibition of human ERG at 1 uM relative to control; assay type: toxicity
hERG (KCNH2) [19] = molecular target: T6, hERG (KCNH2); assay: Inhibition of human ERG at 10 uM; assay type: toxicity
[20] = Cmax in Sprague-Dawley rat plasma at 30 mg/kg, po; assay type: ADME, organism-based; set-up: route oral, dose 30 mg/kg
[21] = Tmax in Sprague-Dawley rat plasma at 30 mg/kg, po; assay type: ADME, organism-based
[22] = Half life in Sprague-Dawley rat plasma at 30 mg/kg, po; assay type: ADME, organism-based
[23] = AUC (0 to 24 hrs) in Sprague-Dawley rat plasma at 30 mg/kg, po; assay type: ADME, organism-based; set-up: time < 24 hr, route oral, dose 30 mg/kg
Salmonella typhimurium = assay: Mutagenicity in Salmonella typhimurium […] in presence of S9 fraction by ames test; assay type: toxicity, organism-based; conditions: salmonella enterica subsp. enterica serovar typhimurium
[24] = Cmax in Lewis rat plasma at 30 mg/kg, po measured after 8 hrs; assay type: ADME, organism-based; set-up: route oral, time 8 hrs, dose 30 mg/kg
[25] = Tmax in Lewis rat plasma at 30 mg/kg, po measured after 8 hrs; assay type: ADME, organism-based
[26] = AUC (0 to 24 hrs) in Lewis rat plasma at 30 mg/kg, po measured after 8 hrs; assay type: ADME, organism-based; set-up: route oral, dose 30 mg/kg, time 8 hrs
[27] = Cmax in Lewis rat femoral head cartilage at 30 mg/kg, po measured after 8 hrs; assay type: ADME, organism-based, Femur; set-up: route oral, time 8 hrs, dose 30 mg/kg
[28] = Tmax in Lewis rat femoral head cartilage at 30 mg/kg, po measured after 8 hrs; assay type: ADME, organism-based, Femur
[29] = AUC (0 to 24 hrs) in Lewis rat femoral head cartilage at 30 mg/kg, po measured after 8 hrs; assay type: ADME, organism-based, Femur; set-up: route oral, dose 30 mg/kg, time 8 hrs
[30] = Ratio of AUC(0 to 24 hrs) in femoral head to plasma in rat measured after 2 hrs; assay type: ADME, Bone/Plasma; conditions: read-out: Selectivity ratio
Femur = assay: Induction of chondrogenesis in femoral head cartilage isolated from C57BL/6 mouse model of osteoarthritis assessed as reduction in intensity of collagen type x staining incubated for 2 weeks in hypertrophic condition and twice for week medium is changed by immunohistochemical staining based analysis; assay type: functional, tissue-based

T1 sequence (P08684 whole entry): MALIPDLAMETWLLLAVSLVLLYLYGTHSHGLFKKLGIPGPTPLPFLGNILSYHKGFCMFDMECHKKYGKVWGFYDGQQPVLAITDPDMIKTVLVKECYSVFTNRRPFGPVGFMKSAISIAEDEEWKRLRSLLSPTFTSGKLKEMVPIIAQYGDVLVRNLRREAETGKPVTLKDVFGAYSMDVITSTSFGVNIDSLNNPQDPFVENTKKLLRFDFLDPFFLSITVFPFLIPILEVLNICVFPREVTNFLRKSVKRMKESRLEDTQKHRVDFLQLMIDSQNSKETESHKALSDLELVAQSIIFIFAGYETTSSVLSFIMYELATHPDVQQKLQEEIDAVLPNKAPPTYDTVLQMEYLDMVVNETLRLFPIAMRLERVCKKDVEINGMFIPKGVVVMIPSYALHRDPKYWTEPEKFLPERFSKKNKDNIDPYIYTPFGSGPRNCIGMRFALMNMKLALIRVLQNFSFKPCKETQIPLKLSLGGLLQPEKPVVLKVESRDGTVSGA
T6 sequence (Q12809 whole entry): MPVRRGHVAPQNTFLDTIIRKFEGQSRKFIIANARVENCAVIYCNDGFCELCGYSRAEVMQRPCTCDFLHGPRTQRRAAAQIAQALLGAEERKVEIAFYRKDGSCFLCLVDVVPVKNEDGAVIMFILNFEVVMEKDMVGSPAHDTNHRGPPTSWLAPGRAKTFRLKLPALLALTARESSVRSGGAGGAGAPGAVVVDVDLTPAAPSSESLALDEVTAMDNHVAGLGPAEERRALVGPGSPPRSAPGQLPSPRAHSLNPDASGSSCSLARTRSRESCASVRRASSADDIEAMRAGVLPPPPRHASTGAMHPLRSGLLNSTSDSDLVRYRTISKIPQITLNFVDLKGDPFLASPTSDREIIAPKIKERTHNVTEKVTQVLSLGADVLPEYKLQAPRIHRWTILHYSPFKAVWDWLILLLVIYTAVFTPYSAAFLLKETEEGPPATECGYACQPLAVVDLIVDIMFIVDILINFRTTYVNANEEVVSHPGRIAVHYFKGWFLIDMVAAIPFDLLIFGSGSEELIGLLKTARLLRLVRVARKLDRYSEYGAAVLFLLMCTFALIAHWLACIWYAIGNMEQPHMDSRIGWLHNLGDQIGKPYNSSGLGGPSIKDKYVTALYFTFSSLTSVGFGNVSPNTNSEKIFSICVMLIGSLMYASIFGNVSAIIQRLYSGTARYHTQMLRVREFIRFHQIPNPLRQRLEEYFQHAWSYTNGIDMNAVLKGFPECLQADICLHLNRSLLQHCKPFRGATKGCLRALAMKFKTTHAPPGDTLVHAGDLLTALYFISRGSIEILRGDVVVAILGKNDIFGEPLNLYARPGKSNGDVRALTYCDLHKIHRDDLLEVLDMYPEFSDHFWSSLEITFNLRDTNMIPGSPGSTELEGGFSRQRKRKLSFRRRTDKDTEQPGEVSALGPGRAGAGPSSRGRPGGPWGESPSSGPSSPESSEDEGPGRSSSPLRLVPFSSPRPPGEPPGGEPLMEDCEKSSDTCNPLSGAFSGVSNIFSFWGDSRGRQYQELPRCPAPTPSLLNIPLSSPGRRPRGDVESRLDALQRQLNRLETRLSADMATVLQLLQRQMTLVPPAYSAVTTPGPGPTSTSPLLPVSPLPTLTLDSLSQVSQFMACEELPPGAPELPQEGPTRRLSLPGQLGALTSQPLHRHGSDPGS
Chain of CYP3A4 (P08684 whole entry): as the sequence (P08684 whole entry) above

Structure (SMILES): N#Cc1ccc(Cl)cc1S(=O)(=O)Nc1ccc(-c2ncc3c(N)n[nH]c3n2)cc1
- pIC50 (Cytochrome P450 3A4 [1]): < 4.52
- metabolised at 20 min [2]: 3%
- pIC50 [3]: 8.52
- pIC50 [4]: 8.05
- pIC50 [5]: 7.68
- pIC50 [6]: 6.68
- pIC50 [7]: 6.53
- pIC50 [8]: 6.52
- chromatographic logD [9]: 1.13
- solubility [10]: 58 µg/mL (≈ 136 µM)
- pIC50 [11]: 6.26
- Papp at 2 h, 20 µM [12]: 1.5 ×10⁻⁶ cm/s
- remaining at 24 h [13]: 100%
- metabolised at 20 min [14]: 3%
- metabolised at 20 min [15]: 2%
- CLH [16]: 0.005 mL/h
- pIC50 (Cytochrome P450 3A4 [17]): < 4.52
- Emax (CYP3A4): 17%
- inhibition at 1 µM (hERG (KCNH2) [18]): 0%
- inhibition at 10 µM (hERG (KCNH2) [19]): 11%
- Cmax [20]: 10600 ng/mL
- Tmax [21]: 4 h
- half-life [22]: 2.8 h
- AUC(0-t) at 24 h [23]: 110000 ng·h/mL
- Activity (Salmonella typhimurium): Non-Toxic
- Cmax [24]: 2970 ng/mL
- Tmax [25]: 4 h
- AUC(0-t) at 8 h [26]: 33000 ng·h/mL
- Cmax [27]: 890 ng/mL
- Tmax [28]: 2 h
- AUC(0-t) at 8 h [29]: 5200 ng·h/mL
- Kp at 2 h [30]: 0.047
- Activity (Femur): Active
